The values below are quoted from earlier work in patent EP1179349B1, “W/O emulsion adjuvant compositions for vaccines” (Lohmann Animal Health GmbH & Co. KG, priority 2000, dated 2002).

The conditions of the data set: manufacturer's data.

SMILES strings stand for the structures.

Turning to `CCCCCCCCCCCCCC(=O)OC(C)C` [Isopropylmyristat], the Toxizität result is “Keine toxische Wirkung nachweisbar”.
